Results from PMC10150365 (Journal of Medicinal Chemistry, 2023).

Experiments:
Test in all cases: Cerep SafetyScreen-87
Conditions in all cases: n=2
PPARγ = target: T1, PPARγ (Homo sapiens, UniProt P37231); format: binding
T1 construct: purchased Eurofins Cerep/Panlabs SafetyScreen-87

Cyclooxigenase COX-1 = target: T2, Cyclooxigenase COX-1 (Homo sapiens, UniProt P23219); format: biochemical
T2 construct: purchased Eurofins Cerep/Panlabs SafetyScreen-87

Adenosine A2A = Adenosine A2A (Homo sapiens, UniProt P29274); format: binding; set-up: purchased Eurofins Cerep/Panlabs SafetyScreen-87
Adenosine A2A, sequence (P29274 whole entry): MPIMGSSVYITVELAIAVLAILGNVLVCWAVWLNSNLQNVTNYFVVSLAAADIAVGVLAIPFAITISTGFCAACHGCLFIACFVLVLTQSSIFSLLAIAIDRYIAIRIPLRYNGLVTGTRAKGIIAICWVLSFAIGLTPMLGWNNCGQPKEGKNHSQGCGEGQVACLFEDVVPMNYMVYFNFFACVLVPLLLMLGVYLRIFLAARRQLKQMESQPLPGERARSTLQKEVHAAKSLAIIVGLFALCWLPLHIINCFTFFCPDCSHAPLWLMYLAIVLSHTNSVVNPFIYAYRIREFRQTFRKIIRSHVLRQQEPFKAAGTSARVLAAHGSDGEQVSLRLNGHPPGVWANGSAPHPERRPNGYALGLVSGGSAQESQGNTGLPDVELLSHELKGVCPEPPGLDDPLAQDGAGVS

Adrenergic α2B = target: T3, Adrenergic α2B (Homo sapiens, UniProt P18089); format: binding
T3 construct: purchased Eurofins Cerep/Panlabs SafetyScreen-87
T3 sequence (P18089 whole entry): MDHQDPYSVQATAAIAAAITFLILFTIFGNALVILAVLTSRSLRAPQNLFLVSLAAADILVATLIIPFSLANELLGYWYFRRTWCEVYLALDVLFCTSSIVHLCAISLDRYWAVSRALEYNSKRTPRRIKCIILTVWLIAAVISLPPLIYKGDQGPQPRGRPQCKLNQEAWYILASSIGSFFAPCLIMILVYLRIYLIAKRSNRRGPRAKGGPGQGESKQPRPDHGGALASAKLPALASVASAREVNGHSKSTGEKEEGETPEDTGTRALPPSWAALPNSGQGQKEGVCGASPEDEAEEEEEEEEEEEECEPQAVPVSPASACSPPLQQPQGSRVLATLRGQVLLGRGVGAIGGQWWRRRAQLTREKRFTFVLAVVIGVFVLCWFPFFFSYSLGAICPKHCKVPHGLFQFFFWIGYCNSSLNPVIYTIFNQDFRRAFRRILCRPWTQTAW

Cannabinoid CB1 = target: T4, Cannabinoid CB1 (Homo sapiens, UniProt P21554); format: binding
T4 construct: purchased Eurofins Cerep/Panlabs SafetyScreen-87
T4 sequence (P21554 whole entry): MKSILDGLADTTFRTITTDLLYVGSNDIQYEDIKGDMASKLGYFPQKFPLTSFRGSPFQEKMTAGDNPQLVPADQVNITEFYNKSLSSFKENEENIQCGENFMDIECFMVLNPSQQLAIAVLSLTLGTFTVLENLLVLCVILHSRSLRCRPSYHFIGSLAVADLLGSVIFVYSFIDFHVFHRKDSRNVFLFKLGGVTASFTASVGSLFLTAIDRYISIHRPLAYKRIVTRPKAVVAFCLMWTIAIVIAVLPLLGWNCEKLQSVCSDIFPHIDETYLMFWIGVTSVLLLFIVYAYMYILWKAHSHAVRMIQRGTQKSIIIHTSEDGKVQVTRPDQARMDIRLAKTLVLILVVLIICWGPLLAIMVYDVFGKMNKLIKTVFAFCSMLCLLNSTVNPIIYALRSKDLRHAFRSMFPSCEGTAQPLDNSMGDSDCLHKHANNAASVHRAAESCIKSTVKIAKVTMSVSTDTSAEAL

[1] = target: T5, Leukotriene, Cysteinyl CysLT1 (Homo sapiens, UniProt Q9Y271); format: binding
T5 construct: purchased Eurofins Cerep/Panlabs SafetyScreen-87
T5 sequence (Q9Y271 whole entry): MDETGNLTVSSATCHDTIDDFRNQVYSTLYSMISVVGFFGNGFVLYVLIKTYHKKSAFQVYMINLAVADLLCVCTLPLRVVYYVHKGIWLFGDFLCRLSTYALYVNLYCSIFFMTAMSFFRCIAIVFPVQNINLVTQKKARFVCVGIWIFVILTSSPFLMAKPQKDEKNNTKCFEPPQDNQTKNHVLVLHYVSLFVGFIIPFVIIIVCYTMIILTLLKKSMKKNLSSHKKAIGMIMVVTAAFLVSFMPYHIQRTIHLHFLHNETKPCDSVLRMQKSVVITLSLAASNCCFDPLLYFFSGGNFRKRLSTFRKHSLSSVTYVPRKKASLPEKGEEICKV

Dopamine D2L = target: T6, Dopamine D2L (Homo sapiens, UniProt P14416); format: binding
T6 construct: purchased Eurofins Cerep/Panlabs SafetyScreen-87
T6 sequence (P14416 whole entry): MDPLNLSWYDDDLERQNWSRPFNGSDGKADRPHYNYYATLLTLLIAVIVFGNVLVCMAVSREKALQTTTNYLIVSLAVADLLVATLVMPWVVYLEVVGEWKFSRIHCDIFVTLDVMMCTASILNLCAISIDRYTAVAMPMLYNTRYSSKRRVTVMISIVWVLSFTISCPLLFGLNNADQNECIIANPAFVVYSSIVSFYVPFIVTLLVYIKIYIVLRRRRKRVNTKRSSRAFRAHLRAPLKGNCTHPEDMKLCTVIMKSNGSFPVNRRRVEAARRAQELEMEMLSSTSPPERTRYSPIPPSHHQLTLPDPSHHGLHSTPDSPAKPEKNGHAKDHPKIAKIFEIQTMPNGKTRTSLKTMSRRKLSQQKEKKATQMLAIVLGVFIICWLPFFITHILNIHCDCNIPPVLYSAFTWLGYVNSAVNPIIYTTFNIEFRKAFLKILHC

Calcium Channel N-type = target: T7, Calcium Channel N-type (Rattus norvegicus, UniProt Q02294); format: binding
T7 construct: purchased Eurofins Cerep/Panlabs SafetyScreen-87

Histamine H1 = target: T8, Histamine H1 (Homo sapiens, UniProt P35367); format: binding
T8 construct: purchased Eurofins Cerep/Panlabs SafetyScreen-87
T8 sequence (P35367 whole entry): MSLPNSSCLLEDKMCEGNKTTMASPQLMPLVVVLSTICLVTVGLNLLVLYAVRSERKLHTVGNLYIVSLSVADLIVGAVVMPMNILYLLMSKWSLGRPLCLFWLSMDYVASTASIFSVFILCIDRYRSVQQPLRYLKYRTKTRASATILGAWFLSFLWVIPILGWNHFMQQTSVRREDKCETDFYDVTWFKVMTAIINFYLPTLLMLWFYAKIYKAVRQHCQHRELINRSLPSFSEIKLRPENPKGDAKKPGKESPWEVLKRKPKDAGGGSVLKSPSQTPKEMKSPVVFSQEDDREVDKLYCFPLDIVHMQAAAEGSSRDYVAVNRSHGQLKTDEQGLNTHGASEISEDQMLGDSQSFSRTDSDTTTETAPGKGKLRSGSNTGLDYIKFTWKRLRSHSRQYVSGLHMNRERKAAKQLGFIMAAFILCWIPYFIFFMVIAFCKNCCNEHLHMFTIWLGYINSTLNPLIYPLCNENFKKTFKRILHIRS

Cyclooxigenase COX-2 = target: T9, Cyclooxigenase COX-2 (Homo sapiens, UniProt P35354); format: biochemical
T9 construct: purchased Eurofins Cerep/Panlabs SafetyScreen-87
T9 sequence (P35354 18-604): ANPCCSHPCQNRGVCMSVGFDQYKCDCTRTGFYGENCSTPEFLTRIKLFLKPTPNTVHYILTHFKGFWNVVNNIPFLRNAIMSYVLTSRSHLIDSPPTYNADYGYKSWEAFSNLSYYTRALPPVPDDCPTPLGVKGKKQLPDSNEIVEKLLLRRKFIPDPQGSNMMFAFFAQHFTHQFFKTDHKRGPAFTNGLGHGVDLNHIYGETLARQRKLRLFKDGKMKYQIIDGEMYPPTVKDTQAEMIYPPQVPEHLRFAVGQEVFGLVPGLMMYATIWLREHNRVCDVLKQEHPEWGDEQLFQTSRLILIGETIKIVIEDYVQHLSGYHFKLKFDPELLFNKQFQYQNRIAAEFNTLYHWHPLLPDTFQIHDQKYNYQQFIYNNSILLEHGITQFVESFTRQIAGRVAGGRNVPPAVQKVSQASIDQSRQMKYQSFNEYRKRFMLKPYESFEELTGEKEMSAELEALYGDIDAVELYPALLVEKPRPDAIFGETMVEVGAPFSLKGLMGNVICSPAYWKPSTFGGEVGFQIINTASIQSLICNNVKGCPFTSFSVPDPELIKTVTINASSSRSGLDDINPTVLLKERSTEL

[2] = target: T10, Serotonin (5-Hydroxytryptamine) 5-HT2A (Homo sapiens, UniProt P28223); format: binding
T10 construct: purchased Eurofins Cerep/Panlabs SafetyScreen-87

Muscarinic M2 = target: T11, Muscarinic M2 (Homo sapiens, UniProt P08172); format: binding
T11 construct: purchased Eurofins Cerep/Panlabs SafetyScreen-87
T11 sequence (P08172 whole entry): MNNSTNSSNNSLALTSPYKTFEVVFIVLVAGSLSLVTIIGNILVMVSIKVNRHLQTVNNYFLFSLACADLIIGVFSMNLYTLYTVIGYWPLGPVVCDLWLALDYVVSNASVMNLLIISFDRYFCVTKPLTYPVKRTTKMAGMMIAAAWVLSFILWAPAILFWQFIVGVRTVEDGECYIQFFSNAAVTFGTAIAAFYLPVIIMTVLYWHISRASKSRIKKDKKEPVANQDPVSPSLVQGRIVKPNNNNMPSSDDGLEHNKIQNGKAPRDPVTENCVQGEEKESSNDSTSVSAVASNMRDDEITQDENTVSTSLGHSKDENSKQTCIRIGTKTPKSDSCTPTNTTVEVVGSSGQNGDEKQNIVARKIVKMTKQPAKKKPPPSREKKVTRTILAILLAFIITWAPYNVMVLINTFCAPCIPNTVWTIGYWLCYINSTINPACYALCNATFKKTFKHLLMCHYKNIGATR

[3] = target: T12, Platelet Activating Factor (PAF) (Homo sapiens, UniProt P25105); format: binding
T12 construct: purchased Eurofins Cerep/Panlabs SafetyScreen-87

Monoamine Oxidase MAO-B = target: T13, Monoamine Oxidase MAO-B (Homo sapiens, UniProt P27338); format: biochemical
T13 construct: purchased Eurofins Cerep/Panlabs SafetyScreen-87

Bradykinin B2 = target: T14, Bradykinin B2 (Homo sapiens, UniProt P30411); format: binding
T14 construct: purchased Eurofins Cerep/Panlabs SafetyScreen-87
T14 sequence (P30411 whole entry): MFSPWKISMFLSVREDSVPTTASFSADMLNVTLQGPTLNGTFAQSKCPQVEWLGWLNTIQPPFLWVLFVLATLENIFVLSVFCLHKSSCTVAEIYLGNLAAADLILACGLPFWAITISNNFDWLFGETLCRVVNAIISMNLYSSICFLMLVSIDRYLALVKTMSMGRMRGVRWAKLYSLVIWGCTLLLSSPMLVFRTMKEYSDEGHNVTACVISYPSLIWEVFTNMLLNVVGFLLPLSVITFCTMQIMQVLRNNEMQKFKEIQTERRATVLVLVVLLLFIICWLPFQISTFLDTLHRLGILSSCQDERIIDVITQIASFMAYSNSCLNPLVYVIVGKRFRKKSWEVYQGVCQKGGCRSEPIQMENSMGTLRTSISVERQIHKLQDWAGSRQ

T1 sequence (P37231 whole entry): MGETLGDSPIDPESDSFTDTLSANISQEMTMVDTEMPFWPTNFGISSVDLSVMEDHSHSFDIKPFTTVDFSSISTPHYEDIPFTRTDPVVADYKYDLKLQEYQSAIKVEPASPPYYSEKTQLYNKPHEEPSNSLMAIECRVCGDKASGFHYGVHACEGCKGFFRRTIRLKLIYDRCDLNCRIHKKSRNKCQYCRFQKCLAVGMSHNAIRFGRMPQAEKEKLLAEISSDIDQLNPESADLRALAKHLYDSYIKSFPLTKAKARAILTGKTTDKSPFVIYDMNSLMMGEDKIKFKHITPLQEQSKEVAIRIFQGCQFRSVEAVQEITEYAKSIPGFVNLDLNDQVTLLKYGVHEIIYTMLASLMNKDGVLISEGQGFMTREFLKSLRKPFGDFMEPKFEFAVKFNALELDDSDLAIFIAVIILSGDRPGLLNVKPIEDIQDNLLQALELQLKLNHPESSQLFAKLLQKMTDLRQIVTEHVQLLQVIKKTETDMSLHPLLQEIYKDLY

CCN1CCN(Cc2ccc3cc(C(=O)Nc4cc(NC(=O)c5ccc6c(c5)OCCO6)ccc4F)ccc3n2)CC1 [Compound 22, N-(5-(2,3-Dihydrobenzo[b][1,4]dioxine-6-carboxamido)-2-fluorophenyl)-2-((4-ethylpiperazin-1-yl)methyl)quinoline-6-carboxamide]
inhibition at 10 µM (PPARγ): 11% | inhibition at 10 µM (Cyclooxigenase COX-1): -24% | inhibition at 10 µM (Adenosine A2A): 91% | inhibition at 10 µM (Adrenergic α2B): 79% | inhibition at 10 µM (Cannabinoid CB1): 9% | inhibition at 10 µM [1]: 7% | inhibition at 10 µM (Dopamine D2L): 20% | inhibition at 10 µM (Calcium Channel N-type): 9% | inhibition at 10 µM (Histamine H1): 36% | inhibition at 10 µM (Cyclooxigenase COX-2): -5% | inhibition at 10 µM [2]: 64% | inhibition at 10 µM (Muscarinic M2): 52% | inhibition at 10 µM [3]: […] | inhibition at 10 µM (Monoamine Oxidase MAO-B): 36% | inhibition at 10 µM (Bradykinin B2): 0%
